Measurements published in ChEMBL document CHEMBL1201862, “PubChem BioAssay data set” (2004).
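A five-concentration, 48-hour dose response in 96-well plates underlies each endpoint, interpolated linearly between surrounding concentrations. Here, GI50 denotes the concentration required for 50% inhibition of growth.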 Active and inactive are the calls of the source. Cut-off read from the data, not from the text of the source: active = GI50 up to about 1.1 µM and inactive = higher.

How the values were obtained:
Test in all cases: growth of human tumour cells (NCI), 48 h
HCT-116 = test system: HCT-116
NCI-H522 = test system: NCI-H522
SF-268 = test system: SF-268
SNB-19 = test system: SNB-19
U-251 = test system: U-251
TK-10 = test system: TK-10
LOX IMVI = test system: LOX IMVI
ACHN = test system: ACHN
NCI-H226 = test system: NCI-H226
UACC-257 = test system: UACC-257
RPMI-8226 = test system: RPMI-8226
DLD-1 = test system: DLD-1
SF-539 = test system: SF-539
HL-60 = test system: HL-60
SK-MEL-2 = test system: SK-MEL-2
IGROV-1 = test system: IGROV-1
OVCAR-5 = test system: OVCAR-5
DMS-273 = test system: DMS-273

| SMILES | GI50 (HCT-116) | GI50 (NCI-H522) | GI50 (SF-268) | GI50 (SNB-19) | GI50 (U-251) | GI50 (TK-10) | GI50 (LOX IMVI) | GI50 (ACHN) | GI50 (NCI-H226) | GI50 (UACC-257) | GI50 (RPMI-8226) | GI50 (DLD-1) | GI50 (SF-539) | GI50 (HL-60) | GI50 (SK-MEL-2) | GI50 (IGROV-1) | GI50 (OVCAR-5) | GI50 (DMS-273) |
| --- | --- | --- | --- | --- | --- | --- | --- | --- | --- | --- | --- | --- | --- | --- | --- | --- | --- | --- |
| CCOP1(=O)C=C(C)C(=C(Cl)Cl)C(C)=C1 (stereo unspecified) | 2.51 µM (inactive) | 3.58 µM (inactive) | 9.57 µM (inactive) | 20.1 µM (inactive) | 13.9 µM (inactive) | 21.3 µM (inactive) | 4.36 µM (inactive) | 17.1 µM (inactive) | 2.39 µM (inactive) | 3.54 µM (inactive) | 3.29 µM (inactive) | 24 µM (inactive) | 18.1 µM (inactive) | 3.33 µM (inactive) | 3.72 µM (inactive) | 24 µM (inactive) |  |  |
| Cc1ccc(NC(=O)/C(=N\Nc2ccc([N+](=O)[O-])cc2[N+](=O)[O-])C2C(=O)NC(=O)NC2=O)cc1 | 62.4 µM (inactive) | > 100 µM (inactive) | 32 µM (inactive) | > 100 µM (inactive) | 38.6 µM (inactive) | > 100 µM (inactive) | > 100 µM (inactive) | 23.3 µM (inactive) | > 100 µM (inactive) | > 100 µM (inactive) | 70 µM (inactive) | 21.1 µM (inactive) | 17.9 µM (inactive) | 35.7 µM (inactive) |  | 43.2 µM (inactive) | > 100 µM (inactive) |  |
| CN(C)CC(/C(Cc1ccccc1)=N\NC(=O)C[n+]1ccccc1)c1ccccc1 (stereo unspecified) | > 100 µM (inactive) | 80.9 µM (inactive) | > 100 µM (inactive) | > 100 µM (inactive) | > 100 µM (inactive) | > 100 µM (inactive) | > 10 µM (inactive) | > 100 µM (inactive) | > 100 µM (inactive) | > 100 µM (inactive) |  |  | > 100 µM (inactive) | > 100 µM (inactive) | > 100 µM (inactive) | > 100 µM (inactive) | > 100 µM (inactive) | 38.8 µM (inactive) |
| CCOC(=O)C1S(=O)(=O)OCCOS1(=O)=O | > 100 µM (inactive) | > 100 µM (inactive) | > 100 µM (inactive) | > 100 µM (inactive) |  | > 100 µM (inactive) | > 100 µM (inactive) |  |  | > 100 µM (inactive) | > 100 µM (inactive) | > 100 µM (inactive) | > 100 µM (inactive) | > 100 µM (inactive) | > 100 µM (inactive) | > 100 µM (inactive) |  | > 100 µM (inactive) |
| Cc1ccc(NC(=O)c2cc3cc(/N=N/c4ccc(Br)cc4)ccc3oc2=O)cc1 | 46.9 µM (inactive) | > 100 µM (inactive) | 28.2 µM (inactive) | 25.9 µM (inactive) | > 100 µM (inactive) | > 100 µM (inactive) | > 100 µM (inactive) | 53 µM (inactive) | > 100 µM (inactive) | > 100 µM (inactive) | > 100 µM (inactive) | 46.5 µM (inactive) |  | 23.4 µM (inactive) | > 100 µM (inactive) |  | > 100 µM (inactive) | 41.8 µM (inactive) |
| COC1=CC(=O)NCCN1 | 74.3 µM (inactive) | > 100 µM (inactive) | > 100 µM (inactive) | > 100 µM (inactive) | > 100 µM (inactive) | > 100 µM (inactive) | 23.5 µM (inactive) | > 100 µM (inactive) | > 100 µM (inactive) | > 100 µM (inactive) |  | > 100 µM (inactive) | > 100 µM (inactive) | 21 µM (inactive) | > 100 µM (inactive) | > 100 µM (inactive) | > 100 µM (inactive) | 78.7 µM (inactive) |
| COc1cccc(/C=C\c2cc(OC)c(OC)c(OC)c2)c1 | 0.548 µM (active) | 0.375 µM (active) | 3.66 µM (inactive) | 2.18 µM (inactive) | 0.407 µM (active) |  |  | 5.79 µM (inactive) | 0.745 µM (active) | 0.505 µM (active) | 0.845 µM (active) | 0.49 µM (active) | 0.753 µM (active) |  |  | 3.15 µM (inactive) | 22.2 µM (inactive) | 0.553 µM (active) |
| N#Cc1ccccc1NC(=O)C(=O)C(C(=O)c1ccccc1-c1ccccc1)C1OC(=O)c2ccccc21 (stereo unspecified) | 11 µM (inactive) | 7.73 µM (inactive) | 14.3 µM (inactive) |  | 11.7 µM (inactive) | > 10 µM (inactive) | 15 µM (inactive) | 53.6 µM (inactive) | 2.58 µM (inactive) | 15.2 µM (inactive) | 11.7 µM (inactive) | 16 µM (inactive) | 10.7 µM (inactive) | 14 µM (inactive) | 16 µM (inactive) | 23.5 µM (inactive) | 17.8 µM (inactive) |  |
| COc1ccc2cc3c4cc(OC)c(OC)cc4ccn3c2c1 |  | > 100 µM (inactive) | > 100 µM (inactive) | > 100 µM (inactive) | > 100 µM (inactive) | > 100 µM (inactive) | > 100 µM (inactive) | > 100 µM (inactive) | > 100 µM (inactive) | > 100 µM (inactive) |  | > 100 µM (inactive) | > 100 µM (inactive) | > 100 µM (inactive) | > 100 µM (inactive) | > 100 µM (inactive) | > 100 µM (inactive) | > 100 µM (inactive) |
